For 17 molecules, inhibition results are on record in US20240425501A1, “NOVEL BICYCLIC HETEROARYL DERIVATIVES AS SOS1:KRAS PROTEINPROTEIN INTERACTION INHIBITORS” (SATYARX PHARMA INNOVATIONS PVT LTD, priority 2021, published 2024).

As a reminder, the inhibition is how much of the control response was suppressed. A lower inhibition goes with a response near the control.

The target of this experiment is T1, hSOS1 enzyme / KRAS (G12C), GST-Tag, GDP-bound protein (Homo sapiens, UniProt Q07889).
T1 sequence (Q07889 564-1049 limits assumed): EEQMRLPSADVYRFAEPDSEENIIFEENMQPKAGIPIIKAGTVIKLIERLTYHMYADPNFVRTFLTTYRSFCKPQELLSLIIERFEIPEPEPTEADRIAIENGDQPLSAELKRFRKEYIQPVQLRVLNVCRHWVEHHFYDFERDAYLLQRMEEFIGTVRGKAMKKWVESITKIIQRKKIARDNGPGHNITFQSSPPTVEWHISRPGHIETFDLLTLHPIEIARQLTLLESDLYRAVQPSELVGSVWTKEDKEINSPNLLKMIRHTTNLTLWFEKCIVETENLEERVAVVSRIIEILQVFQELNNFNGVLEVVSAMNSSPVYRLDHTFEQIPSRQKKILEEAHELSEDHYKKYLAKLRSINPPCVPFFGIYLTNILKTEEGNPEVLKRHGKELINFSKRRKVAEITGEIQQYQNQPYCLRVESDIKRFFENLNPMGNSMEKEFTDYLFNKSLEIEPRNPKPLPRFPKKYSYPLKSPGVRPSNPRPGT
The experiment can be described thus: SOS1-mediated KRAS guanine nucleotide exchange (GEF) assay, HTRF ("On Assay"). It counts as biochemical. As to conditions: 1 μM compound. In short, it runs like this:
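Compounds were preincubated 10 min at 25 °C with GDP-loaded GST-KRAS G12C and Tb-anti-GST (working solution 100 nM/2 nM) in HEPES pH 7, 5 mM MgCl2. hSOS1 plus DY-647P-labelled GTP (working solution 20 nM/200 nM) was then added for 10 min. HTRF was read at 665/615 nm with 320 nm excitation, and wells lacking SOS1 served as negative control.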
As for `CCN1CCN(c2ccc3nc(Cl)nc(N[C@H](C)c4cc(N)cc(C(F)(F)F)c4)c3c2)CC1` [Example 73, (R)—N-(1-(3-amino-5-(trifluoromethyl)phenyl)ethyl)-2-chloro-6-(4-ethylpiperazin-1-yl)quinazolin-4-amine], the inhibition at 1 µM was not below 50%.

In turn, `CNc1nc(N[C@H](C)c2cc(N)cc(C(F)(F)F)c2)c2cc(N3CCOCC3)ccc2n1` [Example 74, (R)—N4-(1-(3-amino-5-(trifluoromethyl)phenyl)ethyl)-N2-methyl-6-morpholinoquinazoline-2,4-diamine] yielded an inhibition at 1 µM not below 50%.

On to `CCC(=O)Nc1nc(N[C@H](C)c2cc(N)cc(C(F)(F)F)c2)c2cc(N3CCCC3)ncc2n1` [Example 75, (R)—N-(4-((1-(3-amino-5-(trifluoromethyl)phenyl)ethyl)amino)-6-(pyrrolidin-1-yl)pyrido[3,4-d]pyrimidin-2-yl)propionamide], for which the inhibition at 1 µM was less than 50%.

The molecule `COCC(=O)Nc1nc(N[C@H](C)c2cc(N)cc(C(F)(F)F)c2)c2cc(N3CCCC3)ncc2n1` [Example 76, (R)—N-(4-((1-(3-amino-5-(trifluoromethyl)phenyl)ethyl)amino)-6-(pyrrolidin-1-yl)pyrido[3,4-d]pyrimidin-2-yl)-2-methoxyacetamide] displayed an inhibition at 1 µM of less than 50%.

Take `C[C@@H](Nc1nc(NC(=O)CN)nc2cnc(N3CCCC3)cc12)c1cc(N)cc(C(F)(F)F)c1` [Example 77, (R)-2-amino-N-(4-((1-(3-amino-5-(trifluoromethyl)phenyl)ethyl)amino)-6-(pyrrolidin-1-yl)pyrido[3,4-d]pyrimidin-2-yl)acetamide hydro chloride]: the inhibition at 1 µM was not below 50%.

For the molecule `CNCCC(=O)Nc1nc(N[C@H](C)c2cc(N)cc(C(F)(F)F)c2)c2cc(N3CCCC3)ncc2n1` [Example 78], the inhibition at 1 µM is not below 50%.

As to `CNCCC(=O)Nc1nc(N[C@H](C)c2cc(N)cc(C(F)(F)F)c2)c2cc(N3CCOCC3)ncc2n1` [Example 79, (R)—N-(4-((1-(3-amino-5-(trifluoromethyl)phenyl)ethyl)amino)-6-morpholinopyrido[3,4-d]pyrimidin-2-yl)-3-(methylamino)propanamide], the inhibition at 1 µM was not below 50%.

Molecule `CCN1CCN(c2cnc3nc(Cl)nc(N[C@H](C)c4cc(N)cc(C(F)(F)F)c4)c3c2)CC1` [Example 80, (R)—N-(1-(3-amino-5-(trifluoromethyl)phenyl)ethyl)-2-chloro-6-(4-ethylpiperazin-1-yl)pyrido[2,3-d]pyrimidin-4-amine] displayed an inhibition at 1 µM not below 50%.

`CCN1CCN(c2cnc3nc(OC)nc(N[C@H](C)c4cc(N)cc(C(F)(F)F)c4)c3c2)CC1` [Example 81, (R)—N-(1-(3-amino-5-(trifluoromethyl)phenyl)ethyl)-6-(4-ethylpiperazin-1-yl)-2-methoxypyrido[2,3-d]pyrimidin-4-amine]: the inhibition at 1 µM is not below 50%.

`C[C@@H](Nc1nc(Cl)nc2ncc(N3CCN(C)CC3)cc12)c1cc(N)cc(C(F)(F)F)c1` [Example 82, (R)—N-(1-(3-amino-5-(trifluoromethyl)phenyl)ethyl)-2-chloro-6-(4-methylpiperazin-1-yl)pyrido[2,3-d]pyrimidin-4-amine] gave an inhibition at 1 µM not below 50%.

The molecule `C[C@@H](Nc1nc(Cl)nc2ncc(N3CCCCC3)cc12)c1cc(N)cc(C(F)(F)F)c1` [Example 83, (R)—N-(1-(3-amino-5-(trifluoromethyl)phenyl)ethyl)-2-chloro-6-(piperidin-1-yl)pyrido[2,3-d]pyrimidin-4-amine] registered an inhibition at 1 µM not below 50%.

For the molecule `C[C@@H](Nc1nc(Cl)nc2ncc(N3CCOCC3)cc12)c1cc(N)cc(C(F)(F)F)c1` [Example 84, (R)—N-(1-(3-amino-5-(trifluoromethyl)phenyl)ethyl)-2-chloro-6-morpholinopyrido[2,3-d]pyrimidin-4-amine], the inhibition at 1 µM was not below 50%.

`CCN1CCN(c2cc3c(N[C@H](C)c4cc(N)cc(C(F)(F)F)c4)cnnc3cn2)CC1` [Example 85, (R)—N-(1-(3-amino-5-(trifluoromethyl)phenyl)ethyl)-6-(4-ethylpiperazin-1-yl)pyrido[3,4-c]pyridazin-4-amine] registered an inhibition at 1 µM not below 50%.

In turn, `CCN1CCN(c2cnc3c(C)nnc(N[C@H](C)c4cc(N)cc(C(F)(F)F)c4)c3c2)CC1` [Example 86, (R)—N-(1-(3-amino-5-(trifluoromethyl)phenyl)ethyl)-3-(4-ethylpiperazin-1-yl)-8-methylpyrido[2,3-d]pyridazin-5-amine] had an inhibition at 1 µM not below 50%.

Molecule `Cc1nnc(N[C@H](C)c2cc(N)cc(C(F)(F)F)c2)c2cc(N3CCOCC3)cnc12` [Example 87, (R)—N-(1-(3-amino-5-(trifluoromethyl)phenyl)ethyl)-8-methyl-3-morpholinopyrido[2,3-d]pyridazin-5-amine] gave an inhibition at 1 µM not below 50%.

In the case of `CCN1CCN(c2cnc3cc(Cl)nc(N[C@H](C)c4cc(N)cc(C(F)(F)F)c4)c3c2)CC1` [Example 88, (R)—N-(1-(3-amino-5-(trifluoromethyl)phenyl)ethyl)-7-chloro-3-(4-ethylpiperazin-1-yl)-1,6-naphthyridin-5-amine], the inhibition at 1 µM is not below 50%.

For the molecule `C[C@@H](Nc1nc(Cl)cc2ncc(N3CCOCC3)cc12)c1cc(N)cc(C(F)(F)F)c1` [Example 89, (R)—N-(1-(3-amino-5-(trifluoromethyl)phenyl)ethyl)-7-chloro-3-morpholino-1,6-naphthyridin-5-amine], the inhibition at 1 µM was not below 50%.
